Reference: patent publication US20250177340A1, “Tartaric Acid Analogs and Uses Thereof” (Lapix Therapeutics, Inc., priority 2021, published 2025)
Values belong to the compound of their own block, whether it stands above or below them.

Key:
murine CD8+ T cells = experiment: Murine CD8+ T-cell proliferation (CFSE), Example 6; type: cell-based, C57BL/6 mice
Procedure: Preparation of test materials: TTA, compound A and compound B were formulated in RPMI media under aseptic conditions. The pH was adjusted to approximately 7.5 before dosing cells.
Tissue culture and dosing: Splenocytes of C57BL/6 mice were stained with CFSE and prepared, cultured, and dosed. Cells were seeded at 1×10^5 cells/well in a 96-well round-bottomed plate.
Controls: Two controls were used. A negative control dosed with 10 ng/ml IL2 was used, and a positive control dosed with 20 μg/ml ConA and 10 ng/ml IL2 was used.
Treatment: After ConA stimulation (10 μg/ml), cells were dosed with 30 mM compound A, B or C with or without 0.1 mM 30:70 PS:DMPC liposomes. All wells were dosed with 10 ng/ml of IL-2.

PD-1 and TIM3 = PD-1 and TIM3 expression on PS-treated human CD8+ T-cells (flow cytometry); type: cell-based
Text: (§1) 30:70 PS:DMPC liposomes were synthesized in PBS.

human CD8+ T cells [1] = experiment: Proliferation of PS-treated human CD8+ T-cells (CFSE); type: cell-based; details: 70 mM L-(+)-tartaric acid with 0.1 mM PS
Text: as §1

human CD8+ T cells [2] = experiment: Survival of PS-treated human CD8+ T-cells (viability dye, microscopy)
Procedure: (§13) CD8+ T-cells were stained with CFSE (ThermoFisher Catalog No. 50-169-50), and prepared, cultured, and dosed as described herein. Briefly, cells were seeded at 4×10^5 cells/well. IL-2 (10 ng/ml) was used as a negative control, and ConA (20 μg/ml) in conjunction with IL-2 (10 ng/ml) was used as a positive control. After ConA stimulation (10 μg/ml) in the presence of 10 ng/ml IL-2, cells were dosed in duplicate with PS:DMPC liposomes to give a total of 100, 10, 1, or 0.1 mM of PS. […] Flow cytometer analysis was performed to assess cell survival by viability dye and proliferation by CFSE (gated on survived CD8+ T-cells).
(§14) Cells were observed via a microscope at the end of the incubation period.

TNF-α = TNF-α ELISA in RAW 264.7 cells; type: cell-based, mouse; details: 0.0001-100 mM, human FVIII antigen
Procedure: (§2) RAW 264.7 cells were prepared, cultured, and dosed as described herein. The RAW 264.7 cell line is an immortalized mouse monocyte macrophage that is very close to primary cells, easy to maintain with minimum manipulation, and known to express TIM4. […] OPLS and TTA were dosed at 100, 70, 50, 30, 10, 3, 1, 0.3, 0.1, 0.03, 0.01, 0.003, 0.001, 0.0003 and 0.0001 mM. Finally, 100 μl of 40 μg/ml of human FVIII as a sample antigen was added to each well. LPS and free protein were used as positive and baseline controls, respectively. OPLS and TTA were formulated in RPMI media in aseptic conditions. The pH was adjusted to approximately 7.5 before dosing cells. TNF-α and TGF-β ELISAs were conducted as per the manufacturer's instructions (TNF-α ELISA kit: R&D systems DY410; TGF-β ELISA kit: R&D systems DY1679).

TGF-β = TGF-β ELISA in RAW 264.7 cells; type: cell-based, mouse; details: 0.0001-100 mM, human FVIII antigen
Procedure: as §2

KLRG1 = experiment: Percent KLRG1+ T-cells in spleens, single dose on Day 7 (Examples 17, 19, 20); type: in vivo, C57BL6 mice; details: for activity after oral administration (KLRG1+, PD1+ T-cells): single PO dose: E 2.5 mg, F 1 mg, G 1 mg; for percent KLRG1+ T-cells compared to untreated animals: single dose, E 0.1, 0.25, 1 mg IV or 2.5 mg PO, F 0.03-1 mg IV or 1 mg PO, G 0.1, 0.4, 1 mg IV or 1 mg PO
Procedure: (§3) Melanoma B16F10 cells were injected IV into C57BL6 mice on Day 0. On Day 7, mice were administered a single dose of 0.1 mg, 0.25 mg, or 1 mg of Compound E IV or 2.5 mg Compound E PO. One group was left untreated. Three mice at each time point were sacrificed, and their spleens were extracted. Percent KLRG1+ and PD-1^+ T-cells were quantified. Briefly, single-cell suspensions prepared from the extracted spleens were prepared and stained for KLRG1, PD-1 and CD8, and analyzed by flow cytometry.
as §3, with “of 0.03 mg,” for “of”, “0.3 mg” for “0.25 mg,”, “mg” for “mg of”, “F” for “E”, “1” for “2.5”
as §3, with “0.4” for “0.25”, “mg” for “mg of”, “G” for “E”, “1” for “2.5”

PD-1 = experiment: Percent PD-1+ T-cells in spleens, single dose on Day 7 (Examples 17, 19, 20); type: in vivo, C57BL6 mice; details: E 0.1, 0.25, 1 mg IV or 2.5 mg PO, F 0.03-1 mg IV or 1 mg PO, G 0.1, 0.4, 1 mg IV or 1 mg PO
Procedure: as §3
as §3, with “of 0.03 mg,” for “of”, “0.3 mg” for “0.25 mg,”, “mg” for “mg of”, “F” for “E”, “1” for “2.5”
as §3, with “0.4” for “0.25”, “mg” for “mg of”, “G” for “E”, “1” for “2.5”

Granzyme B and IFN-γ [3] = experiment: GzmB+/IFN-γ+ double-positive murine CD8+ T-cells, Example 7; type: cell-based, C57BL/6 mice; details: controls: high dose ConA; 0.1 mM PS liposomes
Text: (§4) In this study, the effects of increasing doses of compound B and compound C on proliferation (CFSE staining), activation (Granzyme B and IFN-γ), and checkpoint modulation (PD1 and TIM3) of murine CD8+ T-cells in the presence and absence of phosphatidylserine (PS) were explored.
(§5) Preparation of test materials: 30:70 PS:DMPC liposomes were synthesized in PBS. […] Compound C was first dissolved in a small volume of DMSO before diluting to the final desired concentration.
(§6) Tissue culture and dosing: Splenocytes of C57BL/6 mice were stained with CFSE and prepared, cultured, and dosed. Cells were seeded at 4×10^5 cells/well.
(§7) Controls: Two controls were used. A negative control dosed with 10 ng/ml IL-2 was used, and a positive control dosed with 20 μg/ml ConA and 10 ng/ml IL-2 was used.
(§8) Treatment: After ConA stimulation (10 μg/ml), cells were dosed with log 3 dilution of compound B or compound C to cover a range from 1×10^−3 to 30 mM in duplicates with or without 0.1 mM PS:DMPC liposomes. All wells were dosed with 10 ng/ml of IL-2.
(§9) Flow cytometer: Flow cytometer analysis was performed to assess cell proliferation by CFSE, activation by double staining for Granzyme B (GzmB) and IFN-γ, checkpoint modulation by double staining for PD-1 and TIM3.
(§10) Exposure-response analysis: Change from baseline was calculated for each marker as follows:
(§11) Concentration versus change was fitted to an appropriate three-, four- or five-parameter log-logistic model using “dre” package in “R.”
(§12) The fold change from baseline GzmB+/IFN-γ+ double-positive CD8+ T-cells as a function of increasing doses of compound B was calculated using equation 1, where Responsecontrol was GzmB+/IFN-γ+ double-positive CD8+ T-cells in cells treated with IL-2 alone and Responsetreatment was GzmB+/IFN-γ+ double-positive CD8+ T-cells at each dose of compound B. The baseline PS response was calculated using the same equation with Responsetreatment as the GzmB+/IFN-γ+ double-positive CD8+ T-cells treated with 0.1 mM PS.

TIM3 and PD-1 = experiment: TIM3+/PD-1+ double-positive murine CD8+ T-cells, Example 7; type: cell-based, C57BL/6 mice; details: controls: high dose ConA; 0.1 mM PS liposomes
Text: as §4, §5, §6, §7, §8, §9, §10, §11
as §12, with “baseline of TIM3+/PD-1+” for “baseline GzmB+/IFN-γ+”, “was TIM3+/PD-1+” for “was GzmB+/IFN-γ+”, “the TIM3+/PD-1+” for “the GzmB+/IFN-γ+”

human CD8+ T cells [4] = tested on: human CD8+ T cells
Procedure: as §13, §14

murine CD8+ T-cells = experiment: Murine CD8+ T-cell proliferation concentration-response (CFSE), Example 7; type: cell-based, C57BL/6 mice
Text: as §4, §5, §6, §7, §8, §9, §10, §11
The fold change from baseline of CD8+ T-cells proliferation as a function of increasing doses of compound B was calculated using equation 1, where ResponseControl was the proliferation of cells treated with IL-2 alone and Responsetreatment was the proliferation at each dose of compound B. The baseline PS response was calculated using the same equation where Responsetreatment was the proliferation of cells treated with 0.1 mM PS.

Granzyme B and IFN-γ [5] = experiment: Dose-response of GranzymeB/IFN-γ double positivity in murine CD8+ T-cells, Example 9; type: cell-based, C57BL/6 mice; details: Mus musculus, T-cell
Procedure: A dose-response analysis of compounds B-E in murine CD8+ T-cells was conducted to evaluate the effect of dose on GranzymeB/IFN-γ double positivity.
Compound C, D and E were first dissolved in a small volume of DMSO before diluting to the final desired concentration.
Splenocytes from naïve C57BL/6 mice were stained with CFSE, prepared, cultured, and dosed. Cells were seeded at 2×10^5 cells/well. Negative control was dosed with 10 ng/ml IL-2. After ConA stimulation (10 μg/ml), cells were dosed with log 3 dilution of each compound from 3×10^−9 to 30 µM in triplicates. All wells were dosed with 10 ng/ml of IL-2.
Flow cytometer analysis was performed to assess percent CD8+ T-cells and percent activation by double staining for Granzyme B (GzmB) and IFN-γ as described in Example 7. Concentration versus response curve was fitted to a 4- or 5-parameter log-logistic model using the “dre” package in “R”. Both EC50 and EC90 were obtained by model fitting.

[6] = tested on: T-cells isolated from spleens; experiment: FoxP3/KLRG-1/CTLA4 in T-cells isolated from spleens of compound D-treated animals; type: in vivo; details: 2.5 mg IV daily for seven days
Procedure: Animals were treated with 2.5 mg of compound D IV daily for seven days. Upon completion of the treatment period, T-cells isolated from spleens of the animals were analyzed by flow cytometry.

[7] = 30 mM, in absence of PS, ConA 10 μg/ml
[8] = 70 mM L-(+)-tartaric acid with 0.1 mM PS

Compound: O=C(O)[C@H](O)[C@@H](O)C(=O)O [L-(+)-tartaric acid]
- percent of CD8+ T-cell proliferation (murine CD8+ T cells; [7]): 41.74%
- PD-1 expression (PD-1 and TIM3; [8]): 23%
- TIM3 expression (PD-1 and TIM3; [8]): 0.527%
- decrease of TIM3 expression compared to PS only group (PD-1 and TIM3; [8]): about 66%
- frequency of cells co-expressing PD-1 and TIM3 (PD-1 and TIM3; [8]): 0.198%
- reduction of PD-1 expression compared to PS only-treated group (PD-1 and TIM3; [8]): about 35%
- reduction of cells co-expressing PD-1 and TIM3 compared to PS only (PD-1 and TIM3; [8]): 91.4%
- effect on PS-suppressed CD8+ T-cell proliferation/accumulation (CFSE) (human CD8+ T cells [1]): partially reversed the effect of PS
- increase in viable CD8+ T cells compared to PS-treated cells alone (human CD8+ T cells [2]; [8]): 65%
- TNF-α production (TNF-α): stimulate TNF-α production
- TGF-β production (TGF-β): without stimulating TGF-β production

Compound: O=C(O)[C@H](O)[C@@H](O)C(=O)OCc1ccccc1 [A, (2R,3R)-4-(benzyloxy)-2,3-dihydroxy-4-oxobutanoic acid]
- percent of CD8+ T-cell proliferation (murine CD8+ T cells; [7]): 64.4%

Compound: O=C(O)[C@H](O)[C@@H](O)C(=O)NCCn1c2ccccc2c2ccccc21 [Compound F, (2R,3R)-4-((2-(9H-carbazol-9-yl)ethyl)amino)-2,3-dihydroxy-4-oxobutanoic acid]
- activity after oral administration (KLRG1+, PD1+ T-cells) (KLRG1): effective after oral administration
- percent KLRG1+ T-cells compared to untreated animals (KLRG1): dose-dependent reduction
- percent PD1+ T-cells compared to untreated animals (PD-1): dose-dependent reduction

- microscopic observation of cells (human CD8+ T cells [4]): did not look healthy
Compound: phosphatidylserine [PS, reference compound]
- GzmB+/IFN-γ+ double-positive CD8+ T-cells relative to negative control (Granzyme B and IFN-γ [3]): one half
- percent of CD8+ T-cell proliferation (murine CD8+ T cells; controls: ConA 20 μg/ml + IL2, 0.1 mM PS): 4.84%
- fold increase in TIM3+/PD-1+ double-positive CD8+ T-cells vs negative control (TIM3 and PD-1): 1.27 fold
- PD-1 expression (PD-1 and TIM3; 0.1 mM PS only): 35%
- TIM3 expression (PD-1 and TIM3; 0.1 mM PS only): 1.53%
- frequency of cells co-expressing PD-1 and TIM3 (PD-1 and TIM3; 0.1 mM PS only): 2.31%
- fold increase in CD8+ T-cell proliferation compared to control cells (murine CD8+ T-cells; 0.1 mM PS): 28 fold
- percent proliferation of CD8+ T-cells (murine CD8+ T-cells; controls: high dose ConA 20 μg/ml, 0.1 mM PS liposomes): 4.24%
- CD8+ T-cell survival (human CD8+ T cells [2]; controls: ConA 20 μg/ml + IL-2, 0.1 mM PS after ConA stimulation): 25.9%

Compound: O=C(O)[C@H](O)[C@@H](O)C(=O)NCCCc1ccccc1 [Compound G, (2R,3R)-2,3-dihydroxy-4-oxo-4-((3-phenylpropyl)amino)butanoic acid]
- activity after oral administration (KLRG1+, PD1+ T-cells) (KLRG1): effective after oral administration
- percent KLRG1+ T-cells compared to untreated animals (KLRG1): dose-dependent reduction
- percent PD1+ T-cells compared to untreated animals (PD-1): dose-dependent reduction

- EC50 (Granzyme B and IFN-γ [5]; 4-parameter model): 4.1 nM
- EC90 (Granzyme B and IFN-γ [5]; 4-parameter model): 50 nM
- EC50 (Granzyme B and IFN-γ [5]; 5-parameter model): 3.5 nM
- EC90 (Granzyme B and IFN-γ [5]; 5-parameter model): 39 nM
Compound: O=C(O)[C@H](O)[C@@H](O)C(=O)OCCC1c2ccccc2-c2ccccc21 [Compound D, (2R,3R)-4-(2-(9H-fluoren-9-yl)ethoxy)-2,3-dihydroxy-4-oxobutanoic acid]
- Emax (Granzyme B and IFN-γ [5]; FIG. 4, 5-parameter fit, read-out: maximal response (GzmB/IFN-γ double positive CD8+ T-cells)): 40%
- CTA4+/CD8+ T-cells [6]: 0.27%
- FoxP3+ CD4+ T-cells [6]: 5.42%
- KLRG-1+/CD8+ T-cells [6]: 5.11%
- reduction in CTA4+/CD8+ T-cells [6]: 27%
- reduction in FoxP3+ CD4+ T-cells compared to control animals [6]: 58%
- reduction in KLRG-1+/CD8+ T-cells [6]: 80%
